From patent US4559344A, “Pyridine-pyrimidinone derivatives, a process for their production and H -antagonist medicament containing these compounds” (Ludwig Heumann & Co. GmbH, priority 1983, dated 1985)

Columns and labels:
[1] = background statement; cited from earlier work
histamine-H2-receptors = target: T1, histamine-H2-receptors (Cavia porcellus, UniProt P47747); assay: pA2 determination of H2-antagonistic activity in vitro on the isolated atrium of guinea pigs; details: isolated guinea pig atrium
T1 construct: in vitro on the isolated atrium of guinea pigs; from tissue; host or cells: isolated guinea pig atrium
T1 sequence (P47747 whole entry): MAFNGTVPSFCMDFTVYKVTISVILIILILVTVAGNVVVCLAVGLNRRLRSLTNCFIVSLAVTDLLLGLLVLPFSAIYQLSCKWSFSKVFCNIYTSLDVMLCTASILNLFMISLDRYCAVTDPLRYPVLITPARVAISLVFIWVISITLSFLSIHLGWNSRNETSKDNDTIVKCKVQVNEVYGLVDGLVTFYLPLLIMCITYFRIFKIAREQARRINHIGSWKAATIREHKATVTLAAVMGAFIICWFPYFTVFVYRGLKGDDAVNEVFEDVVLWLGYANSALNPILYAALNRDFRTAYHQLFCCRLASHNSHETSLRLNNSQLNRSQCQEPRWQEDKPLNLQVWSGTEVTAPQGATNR
Source text: A recognized method of measuring H2 -antagonistic activity is based on determination of the pA2 -values in vitro on the isolated atrium of guinea pigs (cf. Ariens, Molecular Pharmacology, Vol. 1, Academic Press, New York, 1964).

Row | Kb (histamine-H2-receptors) | SMILES | half life [1]
1 | – | CN/C(=N/CCSCc1nc[nH]c1C)NC#N [Cimetidine, cimetidine] | relatively short half life
2 | 0.0219 µM | Cc1ccc(Cc2cnc(CCCCOc3cccc(CN4CCCCC4)c3)[nH]c2=O)cn1 [Example 1, 5-(6-methylpyrid-3-ylmethyl)-2-[4-[3-(1-piperidylmethyl)-phenoxy]-butyl]-pyrimidin-4-one] | –
